Laboratory results reported in US10168342B2, “Lipid probes and uses thereof” (THE SCRIPPS RESEARCH INSTITUTE, priority 2015, dated 2019).
Like-named read-outs stand apart in the source and are kept apart here.

Experiments:
[1] = target: T1, AEA-DA lipid probe targets in Neuro2a cells (Mus musculus, UniProt Q8BTX9)
T1 sequence (Q8BTX9 1-330): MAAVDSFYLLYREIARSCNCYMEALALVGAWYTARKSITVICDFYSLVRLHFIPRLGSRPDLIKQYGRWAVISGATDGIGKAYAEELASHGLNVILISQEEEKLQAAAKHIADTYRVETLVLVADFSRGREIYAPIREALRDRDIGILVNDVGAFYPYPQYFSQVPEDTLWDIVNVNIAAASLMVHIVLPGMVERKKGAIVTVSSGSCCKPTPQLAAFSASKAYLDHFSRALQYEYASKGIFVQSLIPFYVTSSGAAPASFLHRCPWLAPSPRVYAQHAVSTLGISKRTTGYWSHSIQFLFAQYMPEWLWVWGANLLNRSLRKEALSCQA

[2] = target: T2, AEA-DA lipid probe targets in Neuro2a cells (Mus musculus, UniProt Q80WJ7)
T2 sequence (Q80WJ7 1-579): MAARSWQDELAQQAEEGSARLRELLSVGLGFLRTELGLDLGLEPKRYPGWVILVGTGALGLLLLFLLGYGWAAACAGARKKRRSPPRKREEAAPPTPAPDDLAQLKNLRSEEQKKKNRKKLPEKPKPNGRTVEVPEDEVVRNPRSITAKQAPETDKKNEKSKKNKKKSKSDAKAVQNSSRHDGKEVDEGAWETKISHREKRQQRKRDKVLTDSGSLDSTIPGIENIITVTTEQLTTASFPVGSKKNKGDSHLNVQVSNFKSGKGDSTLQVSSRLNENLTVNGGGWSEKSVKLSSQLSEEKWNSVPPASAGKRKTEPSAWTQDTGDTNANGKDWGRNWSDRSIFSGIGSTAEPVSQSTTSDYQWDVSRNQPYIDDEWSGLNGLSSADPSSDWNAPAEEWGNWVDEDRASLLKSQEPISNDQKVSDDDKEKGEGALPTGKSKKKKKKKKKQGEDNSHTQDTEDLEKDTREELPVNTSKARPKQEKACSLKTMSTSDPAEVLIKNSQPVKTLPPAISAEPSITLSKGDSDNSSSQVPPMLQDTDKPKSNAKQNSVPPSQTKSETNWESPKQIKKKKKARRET

[3] = target: T3, AEA-DA lipid probe targets in Neuro2a cells (Mus musculus, UniProt P01897)
T3 sequence (P01897 25-362): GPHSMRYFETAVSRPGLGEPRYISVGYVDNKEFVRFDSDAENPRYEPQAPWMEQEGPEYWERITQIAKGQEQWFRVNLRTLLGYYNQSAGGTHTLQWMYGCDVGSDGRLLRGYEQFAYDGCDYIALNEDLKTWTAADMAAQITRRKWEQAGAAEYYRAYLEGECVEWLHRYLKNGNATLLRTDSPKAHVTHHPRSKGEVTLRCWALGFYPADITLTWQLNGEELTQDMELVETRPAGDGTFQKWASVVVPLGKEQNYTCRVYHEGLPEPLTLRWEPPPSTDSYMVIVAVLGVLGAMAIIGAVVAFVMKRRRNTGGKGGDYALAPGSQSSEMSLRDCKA

[4] = target: AEA-DA lipid probe targets in Neuro2a cells (Mus musculus, UniProt P57716)
[5] = target: T4, AEA-DA lipid probe targets in Neuro2a cells (Mus musculus, UniProt P10404)
T4 sequence (P10404 33-641): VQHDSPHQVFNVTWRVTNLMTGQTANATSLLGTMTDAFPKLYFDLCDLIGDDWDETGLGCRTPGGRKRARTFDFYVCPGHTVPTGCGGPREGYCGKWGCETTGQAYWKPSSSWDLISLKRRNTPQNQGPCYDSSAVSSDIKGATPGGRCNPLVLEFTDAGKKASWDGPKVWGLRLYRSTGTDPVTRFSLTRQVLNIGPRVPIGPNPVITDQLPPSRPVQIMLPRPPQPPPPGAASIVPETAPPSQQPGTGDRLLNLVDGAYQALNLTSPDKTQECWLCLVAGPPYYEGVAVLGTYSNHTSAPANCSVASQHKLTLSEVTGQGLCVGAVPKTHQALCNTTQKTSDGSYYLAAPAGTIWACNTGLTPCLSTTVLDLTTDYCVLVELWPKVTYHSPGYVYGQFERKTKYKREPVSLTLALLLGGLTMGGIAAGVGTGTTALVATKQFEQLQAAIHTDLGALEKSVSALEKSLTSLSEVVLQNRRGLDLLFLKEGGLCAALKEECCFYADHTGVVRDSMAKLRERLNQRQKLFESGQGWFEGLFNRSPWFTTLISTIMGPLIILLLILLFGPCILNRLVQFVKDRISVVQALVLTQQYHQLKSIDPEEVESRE

[6] = target: T5, AEA-DA lipid probe targets in Neuro2a cells (Mus musculus, UniProt Q8BTV1)
T5 sequence (Q8BTV1 42-347): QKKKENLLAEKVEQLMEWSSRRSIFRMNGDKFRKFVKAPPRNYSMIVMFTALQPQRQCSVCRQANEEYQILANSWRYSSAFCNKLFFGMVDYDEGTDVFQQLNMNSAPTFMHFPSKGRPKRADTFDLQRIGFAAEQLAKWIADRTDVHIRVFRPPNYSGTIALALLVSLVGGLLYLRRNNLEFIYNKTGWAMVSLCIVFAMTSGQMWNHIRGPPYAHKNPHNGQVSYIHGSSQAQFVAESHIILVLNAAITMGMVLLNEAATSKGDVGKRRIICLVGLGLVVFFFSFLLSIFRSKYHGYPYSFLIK

Sequence of AEA-DA lipid probe targets in Neuro2a cells (Mus musculus, UniProt P57716) (P57716 28-708): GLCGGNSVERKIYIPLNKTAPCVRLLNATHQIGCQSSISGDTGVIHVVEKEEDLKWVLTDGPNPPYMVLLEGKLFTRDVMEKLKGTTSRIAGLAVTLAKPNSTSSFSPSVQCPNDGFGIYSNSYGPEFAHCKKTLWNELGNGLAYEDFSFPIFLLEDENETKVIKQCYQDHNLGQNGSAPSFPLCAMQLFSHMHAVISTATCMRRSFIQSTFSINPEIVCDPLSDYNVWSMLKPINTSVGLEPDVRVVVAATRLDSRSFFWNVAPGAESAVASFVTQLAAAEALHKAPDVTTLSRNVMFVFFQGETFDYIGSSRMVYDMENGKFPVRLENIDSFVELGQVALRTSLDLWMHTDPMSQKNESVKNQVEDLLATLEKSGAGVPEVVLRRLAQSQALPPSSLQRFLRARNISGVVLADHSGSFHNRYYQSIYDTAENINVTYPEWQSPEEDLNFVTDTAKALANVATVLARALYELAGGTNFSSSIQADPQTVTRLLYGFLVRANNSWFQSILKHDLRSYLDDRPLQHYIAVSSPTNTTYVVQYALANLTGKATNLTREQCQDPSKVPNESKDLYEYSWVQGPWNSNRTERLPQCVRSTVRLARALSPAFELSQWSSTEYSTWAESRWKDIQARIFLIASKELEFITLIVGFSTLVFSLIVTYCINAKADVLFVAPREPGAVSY

SMILES | SILAC ratio, Hsdl1 ([1]; competitor 25 μM) | SILAC ratio Mtdh ([2]; competitor 25 μM) | SILAC ratio H2-L ([3]; competitor 25 μM) | SILAC ratio Ncstn ([4]; competitor 25 μM) | SILAC ratio MLV-related ([5]; competitor 25 μM) | SILAC ratio, Tusc3 ([6]; competitor 25 μM) | also measured
CCCCC/C=C\C/C=C\C/C=C\C/C=C\CCCC(=O)NCCO [AEA, anandamide, reference compound] |  |  |  |  |  |  | SILAC ratio, Hsdl1 ([1]; competitor 200 μM): 2.5; SILAC ratio Mtdh ([2]; competitor 200 μM): 1.7; SILAC ratio H2-L ([3]; competitor 200 μM): 1.3; SILAC ratio Ncstn ([4]; competitor 200 μM): 1.6; SILAC ratio MLV-related ([5]; competitor 200 μM): 1.4; SILAC ratio, Tusc3 ([6]; competitor 200 μM): 1.7
O=C(/C=C/c1cccnc1)NCCCCC1CCN(C(=O)c2ccccc2)CC1 [FK-866, reference compound] | 1.0 | 1.2 | 1.0 | 1.1 | 1.1 | 1.3 | 
CN1CCN(C(=O)c2c(-c3ccccc3)c3cc([N+](=O)[O-])ccc3n2C)CC1 [KML110, (1-Methyl-5-nitro-3-phenyl-1H-indol-2-yl)(4-methylpiperazin-1-yl)methanone] | 1.4 | 1.5 | 1.7 | 1.3 | 1.2 | 1.6 | 
CN1CCN(C(=O)c2[nH]c3ccc([N+](=O)[O-])cc3c2-c2ccccc2)CC1 [MJN228, (4-Methylpiperazin-1-yl)(5-nitro-3-phenyl-1H-indol-2-yl)methanone] | 1.2 | 1.5 | 1.1 | 1.6 | 1.8 | 1.6 | SILAC ratio, Hsdl1 ([1]; competitor 10 μM): 1.1; SILAC ratio, Hsdl1 ([1]; competitor 50 μM): 1.0; SILAC ratio, Hsdl1 ([1]; competitor 100 μM): 1.5; SILAC ratio Mtdh ([2]; competitor 10 μM): 1.3; SILAC ratio Mtdh ([2]; competitor 50 μM): 1.6; SILAC ratio Mtdh ([2]; competitor 100 μM): 1.9; SILAC ratio H2-L ([3]; competitor 10 μM): 1.0; SILAC ratio H2-L ([3]; competitor 50 μM): 1.1; SILAC ratio H2-L ([3]; competitor 100 μM): 1.0; SILAC ratio Ncstn ([4]; competitor 10 μM): 1.3; SILAC ratio Ncstn ([4]; competitor 50 μM): 1.2; SILAC ratio Ncstn ([4]; competitor 100 μM): 1.8; SILAC ratio MLV-related ([5]; competitor 10 μM): 1.8; SILAC ratio MLV-related ([5]; competitor 50 μM): 1.7; SILAC ratio MLV-related ([5]; competitor 100 μM): 2.5; SILAC ratio, Tusc3 ([6]; competitor 10 μM): 1.2; SILAC ratio, Tusc3 ([6]; competitor 50 μM): 1.6; SILAC ratio, Tusc3 ([6]; competitor 100 μM): 2.6
C=CCN(C)CCCCCCOc1ccc(C(=O)c2ccc(Br)cc2)c(F)c1 [Ro 48-8071, reference compound] | 0.9 | 1.2 | 0.8 | 1.0 | 1.0 | 1.2 | 
